{"source": "the supplement of paper PMC10307832", "assay_in_all_cases": "relative viability (nuclei count vs DMSO), 5 days (fraction); higher = more cells survive", "key": {"[1]": {"system": "BEN", "how_it_was_run": "(§1)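 Relative viability was taken as the ratio of nuclei in treated wells to nuclei in vehicle wells. Lung cancer cell lines in 1536-well plates received compounds by pin tool one day after seeding, either one drug alone or a fixed anchor-drug dose plus five library-drug doses (not always all listed) in √10 steps. Nuclei were counted on 4× images after 5 days of treatment, and values are medians of duplicate plates.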"}, "[2]": {"system": "NCI-H460", "how_it_was_run": "as §1"}, "[3]": {"system": "NCI-H838", "how_it_was_run": "as §1"}, "[4]": {"system": "LOU-NH91", "how_it_was_run": "as §1"}, "[5]": {"system": "NCI-H1437", "how_it_was_run": "as §1"}, "[6]": {"system": "NCI-H1651", "how_it_was_run": "as §1"}, "[7]": {"system": "NCI-H1975", "how_it_was_run": "as §1"}, "[8]": {"system": "NCI-H1734", "how_it_was_run": "as §1"}, "[9]": {"system": "NCI-H1563", "how_it_was_run": "as §1"}, "[10]": {"system": "HCC-366", "how_it_was_run": "as §1"}, "[11]": {"system": "COR-L23", "how_it_was_run": "as §1"}, "[12]": {"system": "NCI-H2023", "how_it_was_run": "as §1"}, "[13]": {"system": "SK-LU-1", "how_it_was_run": "as §1"}, "[14]": {"system": "NCI-H358", "how_it_was_run": "as §1"}, "[15]": {"system": "NCI-H1650", "how_it_was_run": "as §1"}, "[16]": {"system": "NCI-H1793", "how_it_was_run": "as §1"}, "[17]": {"system": "NCI-H1355", "how_it_was_run": "as §1"}, "[18]": {"system": "LU99A", "how_it_was_run": "as §1"}, "[19]": {"system": "NCI-H2085", "how_it_was_run": "as §1"}, "[20]": {"system": "CAL-12T", "how_it_was_run": "as §1"}}, "data": [{"smiles": "Nc1ccn([C@@H]2O[C@H](CO)[C@@H](O)[C@@H]2O)c(=O)n1", "note": "[Cytarabine] + CS(=O)(=O)CCNCc1ccc(-c2ccc3ncnc(Nc4ccc(OCc5cccc(F)c5)c(Cl)c4)c3c2)o1 [Lapatinib] (partner 2 µM)", "values": [{"measurement": "relative viability", "setting": "[1]; first compound 0.005 µM", "result": 0.606}, {"measurement": "relative viability", "setting": "[1]; first compound 0.01581 µM", "result": 0.549}, {"measurement": "relative viability", "setting": "[1]; first compound 0.05 µM", "result": 0.414}, {"measurement": "relative viability", "setting": "[1]; first compound 0.1581 µM", "result": 0.333}, {"measurement": "relative viability", "setting": "[1]; first compound 0.5 µM", "result": 0.256}, {"measurement": "relative viability", "setting": "[2]; first compound 0.005 µM", "result": 0.333}, {"measurement": "relative viability", "setting": "[2]; first compound 0.01581 µM", "result": 1.1}, {"measurement": "relative viability", "setting": "[2]; first compound 0.05 µM", "result": 0.4}, {"measurement": "relative viability", "setting": "[2]; first compound 0.1581 µM", "result": 0.0338}, {"measurement": "relative viability", "setting": "[2]; first compound 0.5 µM", "result": 0.0305}, {"measurement": "relative viability", "setting": "[3]; first compound 0.005 µM", "result": 0.926}, {"measurement": "relative viability", "setting": "[3]; first compound 0.01581 µM", "result": 0.937}, {"measurement": "relative viability", "setting": "[3]; first compound 0.05 µM", "result": 0.767}, {"measurement": "relative viability", "setting": "[3]; first compound 0.1581 µM", "result": 0.288}, {"measurement": "relative viability", "setting": "[3]; first compound 0.5 µM", "result": 0.213}, {"measurement": "relative viability", "setting": "[4]; first compound 0.005 µM", "result": 0.735}, {"measurement": "relative viability", "setting": "[4]; first compound 0.01581 µM", "result": 0.729}, {"measurement": "relative viability", "setting": "[4]; first compound 0.05 µM", "result": 0.588}, {"measurement": "relative viability", "setting": "[4]; first compound 0.1581 µM", "result": 0.669}, {"measurement": "relative viability", "setting": "[4]; first compound 0.5 µM", "result": 0.554}, {"measurement": "relative viability", "setting": "[5]; first compound 0.005 µM", "result": 0.548}, {"measurement": "relative viability", "setting": "[5]; first compound 0.01581 µM", "result": 0.453}, {"measurement": "relative viability", "setting": "[5]; first compound 0.05 µM", "result": 0.378}, {"measurement": "relative viability", "setting": "[5]; first compound 0.1581 µM", "result": 0.177}, {"measurement": "relative viability", "setting": "[5]; first compound 0.5 µM", "result": 0.147}, {"measurement": "relative viability", "setting": "[6]; first compound 0.005 µM", "result": 0.801}, {"measurement": "relative viability", "setting": "[6]; first compound 0.01581 µM", "result": 0.845}, {"measurement": "relative viability", "setting": "[6]; first compound 0.05 µM", "result": 1.02}, {"measurement": "relative viability", "setting": "[6]; first compound 0.1581 µM", "result": 0.421}, {"measurement": "relative viability", "setting": "[6]; first compound 0.5 µM", "result": 0.288}, {"measurement": "relative viability", "setting": "[7]; first compound 0.005 µM", "result": 0.644}, {"measurement": "relative viability", "setting": "[7]; first compound 0.01581 µM", "result": 1.05}, {"measurement": "relative viability", "setting": "[7]; first compound 0.05 µM", "result": 1.09}, {"measurement": "relative viability", "setting": "[7]; first compound 0.1581 µM", "result": 0.456}, {"measurement": "relative viability", "setting": "[7]; first compound 0.5 µM", "result": 0.372}, {"measurement": "relative viability", "setting": "[8]; first compound 0.005 µM", "result": 0.628}, {"measurement": "relative viability", "setting": "[8]; first compound 0.01581 µM", "result": 0.341}, {"measurement": "relative viability", "setting": "[8]; first compound 0.05 µM", "result": 0.481}, {"measurement": "relative viability", "setting": "[8]; first compound 0.1581 µM", "result": 0.151}, {"measurement": "relative viability", "setting": "[8]; first compound 0.5 µM", "result": 0.134}, {"measurement": "relative viability", "setting": "[9]; first compound 0.005 µM", "result": 0.935}, {"measurement": "relative viability", "setting": "[9]; first compound 0.01581 µM", "result": 0.859}, {"measurement": "relative viability", "setting": "[9]; first compound 0.05 µM", "result": 0.497}, {"measurement": "relative viability", "setting": "[9]; first compound 0.1581 µM", "result": 0.926}, {"measurement": "relative viability", "setting": "[9]; first compound 0.5 µM", "result": 0.708}, {"measurement": "relative viability", "setting": "[10]; first compound 0.005 µM", "result": 1.16}, {"measurement": "relative viability", "setting": "[10]; first compound 0.01581 µM", "result": 0.85}, {"measurement": "relative viability", "setting": "[10]; first compound 0.05 µM", "result": 1.05}, {"measurement": "relative viability", "setting": "[10]; first compound 0.1581 µM", "result": 0.0753}, {"measurement": "relative viability", "setting": "[10]; first compound 0.5 µM", "result": 0.0431}, {"measurement": "relative viability", "setting": "[11]; first compound 0.005 µM", "result": 0.892}, {"measurement": "relative viability", "setting": "[11]; first compound 0.01581 µM", "result": 0.668}, {"measurement": "relative viability", "setting": "[11]; first compound 0.05 µM", "result": 0.921}, {"measurement": "relative viability", "setting": "[11]; first compound 0.1581 µM", "result": 0.235}, {"measurement": "relative viability", "setting": "[11]; first compound 0.5 µM", "result": 0.138}, {"measurement": "relative viability", "setting": "[12]; first compound 0.005 µM", "result": 0.515}, {"measurement": "relative viability", "setting": "[12]; first compound 0.01581 µM", "result": 0.224}, {"measurement": "relative viability", "setting": "[12]; first compound 0.05 µM", "result": 0.144}, {"measurement": "relative viability", "setting": "[12]; first compound 0.1581 µM", "result": 0.0848}, {"measurement": "relative viability", "setting": "[12]; first compound 0.5 µM", "result": 0.0542}, {"measurement": "relative viability", "setting": "[13]; first compound 0.005 µM", "result": 0.659}, {"measurement": "relative viability", "setting": "[13]; first compound 0.01581 µM", "result": 0.744}, {"measurement": "relative viability", "setting": "[13]; first compound 0.05 µM", "result": 0.697}, {"measurement": "relative viability", "setting": "[13]; first compound 0.1581 µM", "result": 0.345}, {"measurement": "relative viability", "setting": "[13]; first compound 0.5 µM", "result": 0.467}, {"measurement": "relative viability", "setting": "[14]; first compound 0.005 µM", "result": 0.471}, {"measurement": "relative viability", "setting": "[14]; first compound 0.01581 µM", "result": 0.332}, {"measurement": "relative viability", "setting": "[14]; first compound 0.05 µM", "result": 0.364}, {"measurement": "relative viability", "setting": "[14]; first compound 0.1581 µM", "result": 0.199}, {"measurement": "relative viability", "setting": "[14]; first compound 0.5 µM", "result": 0.176}, {"measurement": "relative viability", "setting": "[15]; first compound 0.005 µM", "result": 0.807}, {"measurement": "relative viability", "setting": "[15]; first compound 0.01581 µM", "result": 0.604}, {"measurement": "relative viability", "setting": "[15]; first compound 0.05 µM", "result": 0.317}, {"measurement": "relative viability", "setting": "[15]; first compound 0.1581 µM", "result": 0.247}, {"measurement": "relative viability", "setting": "[15]; first compound 0.5 µM", "result": 0.155}, {"measurement": "relative viability", "setting": "[16]; first compound 0.005 µM", "result": 0.846}, {"measurement": "relative viability", "setting": "[16]; first compound 0.01581 µM", "result": 0.478}, {"measurement": "relative viability", "setting": "[16]; first compound 0.05 µM", "result": 0.656}, {"measurement": "relative viability", "setting": "[16]; first compound 0.1581 µM", "result": 0.451}, {"measurement": "relative viability", "setting": "[16]; first compound 0.5 µM", "result": 0.338}, {"measurement": "relative viability", "setting": "[17]; first compound 0.005 µM", "result": 0.884}, {"measurement": "relative viability", "setting": "[17]; first compound 0.01581 µM", "result": 0.968}, {"measurement": "relative viability", "setting": "[17]; first compound 0.05 µM", "result": 0.811}, {"measurement": "relative viability", "setting": "[17]; first compound 0.1581 µM", "result": 0.66}, {"measurement": "relative viability", "setting": "[17]; first compound 0.5 µM", "result": 0.322}, {"measurement": "relative viability", "setting": "[18]; first compound 0.005 µM", "result": 0.974}, {"measurement": "relative viability", "setting": "[18]; first compound 0.01581 µM", "result": 0.968}, {"measurement": "relative viability", "setting": "[18]; first compound 0.05 µM", "result": 1.02}, {"measurement": "relative viability", "setting": "[18]; first compound 0.1581 µM", "result": 0.988}, {"measurement": "relative viability", "setting": "[18]; first compound 0.5 µM", "result": 0.938}, {"measurement": "relative viability", "setting": "[19]; first compound 0.005 µM", "result": 0.735}, {"measurement": "relative viability", "setting": "[19]; first compound 0.01581 µM", "result": 0.725}, {"measurement": "relative viability", "setting": "[19]; first compound 0.05 µM", "result": 0.666}, {"measurement": "relative viability", "setting": "[19]; first compound 0.1581 µM", "result": 0.622}, {"measurement": "relative viability", "setting": "[19]; first compound 0.5 µM", "result": 0.374}, {"measurement": "relative viability", "setting": "[20]; first compound 0.005 µM", "result": 0.848}, {"measurement": "relative viability", "setting": "[20]; first compound 0.01581 µM", "result": 0.629}, {"measurement": "relative viability", "setting": "[20]; first compound 0.05 µM", "result": 0.542}, {"measurement": "relative viability", "setting": "[20]; first compound 0.1581 µM", "result": 0.388}, {"measurement": "relative viability", "setting": "[20]; first compound 0.5 µM", "result": 0.269}]}]}
